Test results reported in patent US10869846B2, “N-acetylcysteine amide (NAC amide) in the treatment of diseases and conditions associated with oxidative stress” (SENTIENT LIFESCIENCES, INC., priority 2005, dated 2020).

What was measured:
[1] = Wong et al. 1986; cited from earlier work
[2] = test system: PC12 cells; assay: LDH assay, glutamate cytotoxicity; assay type: cell-based; settings: 10 mM glutamate + 750 μM NAC amide, 24 hours; glutamate alone = 100%
Protocol: LDH assay: For the lactate dehydrogenase (LDH) assay, cells were plated at a density of 2.5×10^5 cells/well in a 24 well collagen-coated culture plate and, after 24 h; the medium was replaced with fresh DMEM medium containing the desired concentration of glutamate and NAC amide. After the desired incubation period, the LDH activity released was determined using the kit as described below. For the MTS assay, cells were plated at a density of 10^5 cells/well in a 24 well collagen-coated plate. At the end of the experiments, cell viability was assayed using the kit as described. The LDH activity assay was performed with the CytoTox96® Non-Radioactive Cytotoxicity Assay kit (Promega, Madison, Wis., USA), which quantitatively measured the activity of LDH, a stable cytosolic enzyme that is released upon cell lysis [Technical Bulletin No. 163, Promega]. […] Absorbance data were collected using a BMG microplate reader (BMG Labtechnologies, Inc., Durham, N.C., USA) at 490 nm. LDH leakage was expressed as the percentage (%) of the maximum LDH release in the cells treated with glutamate alone (100%), according to the formula: […]
To quantify the protection provided by NAC amide, PC12 cells were exposed to 10 mM glutamate in the presence of NAC amide for 24 hours, and then the amount of LDH released was measured using the LDH assay.

[3] = test system: red blood cells (RBCs); settings: Grinberg et al. 2005; cited from earlier work
[4] = test system: PC12 cells; assay: Cysteine levels in cells; assay type: cell-based; settings: NAC amide 750 μM, glutamate 10 mM, 24 h (FIG. 5)
Protocol: (§1) Cells were plated and grown for 24 hours, and then they were exposed to glutamate (10 mM) in the presence or absence of NAC amide (750 μM). Twenty-four hours later, the cells were harvested and cysteine levels were measured. Values represent means±SD. Statistically different values of *P<0.005 and **P<0.05 were determined, compared to control. ***P<0.05 compared to glutamate-treated group.
GSH measurement: Cellular levels of GSH were determined by using the method as described in Winters R. A. et al., Anal Biochem., 227(1):14-21, 1995. Cells were seeded at a density of 80,000 cells/cm^2 on poly-D-lysine coated (0.05 mg/ml) 75 cm^2 flasks (5 ml/flask) for GSH measurement. After 24 hours, the flasks were incubated with fresh medium containing glutamate (10 mM), or BSO (0.2 mM) or Glu+BSO+NAC amide (750 μM) at […] for another 24 h. After the incubation period, cells were removed from the cultures and homogenized in serine borate buffer (100 mM Tris-HCl, 10 mM boric acid, 5 mM L-serine, 1 mM DETAPAC, pH 7.4). Twenty (20) μl of the diluted cell homogenate were added to 230 μl of serine borate buffer and 750 μl of NPM (1 mM in acetonitrile). The resulting solutions were incubated at room temperature for 5 min. The reaction was stopped by the addition of 5 μl of 2N HCl. The samples were then filtered through a 0.2 μm Acrodisc filter and injected onto the HPLC system.

[5] = test system: PC12 cells; assay: MDA measurement in glutamate-exposed cells; assay type: cell-based; settings: 24 h
Protocol: MDA measurement: To prepare the solution, 350 μl of straight cell homogenate, 100 μl of 500 ppm BHT (butylated hydroxytoluene), and 550 μl of 10% TCA (trichloroacetic acid) were combined and boiled for 30 min. The tubes were cooled on ice and centrifuged for 10 min at 2500 rpm. Five hundred (500) μl of the supernatant were removed and 500 μl of TBA (thiobarbituric acid) were added. The tubes were boiled again for 30 min, and then cooled on ice. From this solution, 500 μl were removed, added to 1.0 ml of n-butanol, vortexed, and centrifuged for 5 min at 60 g to facilitate a phase separation. The top layer was then filtered through 0.45 μm filters and injected onto a 5 μm C18 column (250×4.6 mm) on a reverse phase HPLC system. The mobile phase consisted of 69.4% 5 mM sodium phosphate buffer (pH=7.0), 30% acetonitrile, and 0.6% THF (tetrahydrofuran). The excitation wavelength was 515 nm; the emission wavelength was 550 nm (Draper H. H. et al., Free Radic Biol Med., 15(4):353-63, 1993).
as §1, with “malondialdehyde” for “cysteine”, “means.+−.SD.” for “means±SD.”, “*P<0.002” for “*P<0.005”

Compound	time increased hepatic GSH levels are maintained [1]	% LDH released [2]	BuOOH-induced intracellular oxidation in red blood cells [3]	cysteine levels compared to the control group [4]	MDA Levels ([5]; GLU (10 mM) + NAC amide (750 μM))	MDA Levels ([5]; NAC amide (750 μM) alone)
CC(=O)N[C@@H](CS)C(=O)O [NAC, N-acetylcysteine]	at least 6 hours					
N-acetylcysteine amide [NAC amide]		28.9%	inhibit	increase	88 ± 11 nM/100 mg protein	81 ± 22 nM/100 mg protein
